Assay results reported in ChEMBL document CHEMBL5120928, “A New Chemotype of Chemically Tractable Nonsteroidal Estrogens Based on a Thieno[2,3-d]pyrimidine Core” (ACS Med Chem Lett, 2022).
pEC50: −log10 of the molar value.

What was measured:
Estrogen receptor [1] = molecular target: T1, Estrogen receptor (Homo sapiens, UniProt P03372)
T1 sequence (P03372 whole entry): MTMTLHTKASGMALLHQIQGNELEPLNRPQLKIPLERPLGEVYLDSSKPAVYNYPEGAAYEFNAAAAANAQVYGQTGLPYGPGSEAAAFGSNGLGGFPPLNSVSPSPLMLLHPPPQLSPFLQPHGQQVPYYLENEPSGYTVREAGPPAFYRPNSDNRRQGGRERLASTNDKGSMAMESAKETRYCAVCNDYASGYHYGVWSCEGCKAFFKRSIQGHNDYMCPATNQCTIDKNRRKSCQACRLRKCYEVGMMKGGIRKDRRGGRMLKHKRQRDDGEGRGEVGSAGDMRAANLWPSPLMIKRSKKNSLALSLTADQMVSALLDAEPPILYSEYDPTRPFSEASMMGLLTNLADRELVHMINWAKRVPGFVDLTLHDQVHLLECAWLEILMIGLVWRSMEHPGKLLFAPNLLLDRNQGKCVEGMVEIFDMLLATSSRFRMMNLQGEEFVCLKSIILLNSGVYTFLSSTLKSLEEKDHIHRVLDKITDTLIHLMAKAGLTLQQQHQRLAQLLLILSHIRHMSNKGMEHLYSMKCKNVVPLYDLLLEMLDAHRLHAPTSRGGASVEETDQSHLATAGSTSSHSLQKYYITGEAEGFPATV

Estrogen receptor [2] = molecular target: T1, Estrogen receptor; remark: listed apart in the source
Description: Agonist activity at RST7-ERalpha (unknown origin) co-expressed with (ERE)TK-luciferase reporter plasmid transfected in human HepG2 cells incubated for 24 hrs by Renilla luciferase based reporter assay

SMILES: Oc1ccc(CNc2nc(Cl)nc3scc(-c4ccccc4)c23)cc1O
- pEC50 (Estrogen receptor [1]): < 5.00
- pEC50 (Estrogen receptor [2]): < 5.00
